The record followed here is PubChem BioAssay (NCI).

Molecules are shown by their SMILES.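 48-hour exposure; five concentrations; linearly interpolated endpoints. At the GI50, growth is halved. At the TGI there is no net growth.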 A value given as a limit tells only on which side of the number the result lay.

Among the test systems are LOX IMVI melanoma; UACC-257 melanoma; SNB-19 CNS; RPMI-8226 leukemia; OVCAR-3 ovarian; SK-OV-3 ovarian; SF-268 CNS; NCI-H23 lung; HOP-62 NSCLC; MCF7 breast.
Assay in all cases: DTP human tumour cell line panel, 48 h

For `CCN(CC)CCn1ccc(=O)c2cc3c(=O)ccn(CCN(CC)CC)c3c(C)c21`, the TGI in the assay with LOX IMVI melanoma is 7.55 µM; in the assay on UACC-257 melanoma, 33.9 µM; in the assay on SNB-19 CNS, 18.3 µM; in the assay with RPMI-8226 leukemia it was 6.8 µM; in the assay with OVCAR-3 ovarian, 23.6 µM; with SK-OV-3 ovarian it was 15.9 µM. Further, the total growth inhibition concentration (TGI) was 17.2 µM in the assay on SF-268 CNS, 19.3 µM in the assay with NCI-H23 lung, 19.7 µM with HOP-62 NSCLC and over 100 µM with MCF7 breast.

For `CCN(Cc1ccc(F)c(F)c1)c1ccc(CO)c(Cl)c1`, the GI50 in the assay on LOX IMVI melanoma was 11.8 µM; in the assay with UACC-257 melanoma, 0.138 µM; in the assay on SNB-19 CNS it was 12.6 µM; with RPMI-8226 leukemia, 2.44 µM; with OVCAR-3 ovarian, 0.395 µM; in the assay on SK-OV-3 ovarian, 5.94 µM. Besides, the GI50 in the assay on SF-268 CNS is 15 µM; with NCI-H23 lung, 6.7 µM; in the assay on HOP-62 NSCLC it was 1.71 µM; in the assay on MCF7 breast, 0.195 µM. The TGI with LOX IMVI melanoma was 25.7 µM; in the assay on UACC-257 melanoma, 0.432 µM; with SNB-19 CNS it was 27.8 µM; in the assay on RPMI-8226 leukemia, 28.9 µM; in the assay with OVCAR-3 ovarian it was 2.25 µM; in the assay with SK-OV-3 ovarian it was 19.3 µM. In addition, the total growth inhibition concentration (TGI) in the assay on SF-268 CNS came out at 32.4 µM; in the assay with NCI-H23 lung, 27.1 µM; with HOP-62 NSCLC, 17.4 µM; in the assay with MCF7 breast, 12.3 µM.

On to `C[C@H](Nc1ncnc2nc[nH]c12)c1cc2cccc(Cl)c2c(=O)n1-c1ccccc1`, for which the GI50 is 19.8 µM in the assay with LOX IMVI melanoma; 8.57 µM in the assay with UACC-257 melanoma; 17.7 µM in the assay on SNB-19 CNS; 60.3 µM with RPMI-8226 leukemia; 4.19 µM with OVCAR-3 ovarian; 10.8 µM in the assay on SK-OV-3 ovarian. Moreover, the GI50 in the assay on SF-268 CNS is 22.6 µM; in the assay with NCI-H23 lung, 82.1 µM; in the assay with HOP-62 NSCLC, 30.3 µM; with MCF7 breast it was 3.16 µM. For the same molecule, the total growth inhibition concentration (TGI) with LOX IMVI melanoma, with UACC-257 melanoma, in the assay on SNB-19 CNS, in the assay with RPMI-8226 leukemia, in the assay with OVCAR-3 ovarian and with SK-OV-3 ovarian was over 100 µM each time. Moreover, the TGI in the assay with SF-268 CNS, in the assay on NCI-H23 lung, in the assay on HOP-62 NSCLC and with MCF7 breast was over 100 µM each time.

Regarding `CC1SC(c2c(Cl)cccc2Cl)N(NC(=O)c2[nH]c3ccc(F)cc3c2-c2ccccc2)C1=O` (stereo not given), the GI50 in the assay with LOX IMVI melanoma is 1.71 µM; in the assay with UACC-257 melanoma, 4.69 µM; in the assay with SNB-19 CNS, 2.17 µM; in the assay with RPMI-8226 leukemia, 5.59 µM; with OVCAR-3 ovarian, 1.76 µM; with SK-OV-3 ovarian, 1.95 µM. The GI50 with SF-268 CNS was 1.97 µM; in the assay with NCI-H23 lung it was 2.73 µM; in the assay with HOP-62 NSCLC, 1.79 µM; with MCF7 breast, 3.18 µM. For the same molecule, the TGI in the assay with LOX IMVI melanoma is 3.35 µM; in the assay with UACC-257 melanoma it was 44 µM; in the assay with SNB-19 CNS, 5.82 µM; with RPMI-8226 leukemia it was over 100 µM; in the assay with OVCAR-3 ovarian it was 3.45 µM; in the assay on SK-OV-3 ovarian it was 4.2 µM. The total growth inhibition concentration (TGI) in the assay with SF-268 CNS was found to be 4.89 µM; with NCI-H23 lung, 10.1 µM; with HOP-62 NSCLC, 3.33 µM; in the assay on MCF7 breast it was 11.5 µM.

Take `COc1c(CCC[P+](c2ccccc2)(c2ccccc2)c2ccccc2)cc2c(c1OC)OCO2`: the GI50 in the assay with LOX IMVI melanoma was 2.4 µM; in the assay on UACC-257 melanoma, 0.312 µM; in the assay on SNB-19 CNS, 1.44 µM; in the assay on RPMI-8226 leukemia, 0.233 µM; in the assay with OVCAR-3 ovarian, 0.629 µM; with SK-OV-3 ovarian, 2.56 µM. Besides, the GI50 with SF-268 CNS was 2.04 µM; in the assay with NCI-H23 lung, 2.19 µM; in the assay with HOP-62 NSCLC it was 3.42 µM; in the assay on MCF7 breast, 1.12 µM. Moreover, the TGI with LOX IMVI melanoma is 10.4 µM; with UACC-257 melanoma it was 4.38 µM; in the assay on SNB-19 CNS, 12.9 µM; in the assay on RPMI-8226 leukemia, 1.72 µM; in the assay with OVCAR-3 ovarian it was 18 µM; in the assay with SK-OV-3 ovarian it was 8.45 µM. For the same molecule, the TGI with SF-268 CNS amounted to 13.1 µM; in the assay on NCI-H23 lung it was 10.3 µM; in the assay on HOP-62 NSCLC, 14.5 µM; with MCF7 breast, 10.7 µM.

For the molecule `N#Cc1cnc2cc(OC[C@H](O)CO)c(NC(=O)CC3CSSC3)cc2c1Nc1ccc(OCc2cccc(F)c2)c(Cl)c1`, the GI50 is 2.26 µM with LOX IMVI melanoma; 1.01 µM in the assay with UACC-257 melanoma; 0.447 µM with SNB-19 CNS; 1.09 µM with RPMI-8226 leukemia; 0.514 µM in the assay on OVCAR-3 ovarian; 0.748 µM in the assay on SK-OV-3 ovarian. The GI50 in the assay with SF-268 CNS was 0.537 µM; in the assay on NCI-H23 lung it was 0.772 µM; in the assay with HOP-62 NSCLC it was 0.895 µM; in the assay with MCF7 breast it was 0.0865 µM. The concentration for total growth inhibition (TGI) stood at 3.41 µM in the assay with LOX IMVI melanoma; 1.96 µM in the assay with UACC-257 melanoma; 1.43 µM in the assay on SNB-19 CNS; 2.49 µM in the assay with RPMI-8226 leukemia; 1.24 µM with OVCAR-3 ovarian; 1.48 µM in the assay on SK-OV-3 ovarian. Further, the TGI was 1.56 µM with SF-268 CNS, 1.7 µM in the assay on NCI-H23 lung, 1.81 µM with HOP-62 NSCLC and 0.176 µM with MCF7 breast.

With `C[C@@H](C(=O)Nc1ccc(Cl)cc1)C1CCC(c2ccnc3ccc(F)cc23)CC1` (stereo not given in full), the GI50 in the assay with LOX IMVI melanoma was 5.85 µM; in the assay on UACC-257 melanoma, 13.3 µM; in the assay on SNB-19 CNS, 10.8 µM; with RPMI-8226 leukemia, 2.85 µM; in the assay with OVCAR-3 ovarian it was 11.9 µM; in the assay with SK-OV-3 ovarian, 15.3 µM. The GI50 in the assay with SF-268 CNS was 8.55 µM; with NCI-H23 lung it was 3.93 µM; with HOP-62 NSCLC, 19.4 µM; in the assay on MCF7 breast it was 4.4 µM. Also, the TGI is 21.3 µM in the assay on LOX IMVI melanoma; 53.7 µM in the assay on UACC-257 melanoma; over 100 µM with SNB-19 CNS; 13.9 µM in the assay on RPMI-8226 leukemia; 63.1 µM in the assay with OVCAR-3 ovarian; 73.8 µM with SK-OV-3 ovarian. The total growth inhibition concentration (TGI) was 60.9 µM in the assay with SF-268 CNS, 56.4 µM with NCI-H23 lung, over 100 µM with HOP-62 NSCLC and 97.5 µM in the assay on MCF7 breast.

As for `COc1c2c(c3c(c1CCC(=O)O)OC(C)(C)C=C3)OC(C)(C)C=C2`, the TGI in the assay on LOX IMVI melanoma, in the assay on UACC-257 melanoma, in the assay on SNB-19 CNS, in the assay on RPMI-8226 leukemia, in the assay with OVCAR-3 ovarian and in the assay with SK-OV-3 ovarian was over 100 µM each time. The TGI in the assay on SF-268 CNS, with NCI-H23 lung, with HOP-62 NSCLC and in the assay with MCF7 breast was over 100 µM in each case.

Take `O=C(c1ccccc1)C1N=NCC1c1ccc([N+](=O)[O-])cc1` (stereo not given): the total growth inhibition concentration (TGI) in the assay with LOX IMVI melanoma was over 100 µM; in the assay with UACC-257 melanoma, 88.4 µM; with SNB-19 CNS, over 100 µM; in the assay on RPMI-8226 leukemia, over 100 µM; with OVCAR-3 ovarian, 48.4 µM; in the assay on SK-OV-3 ovarian it was over 100 µM. The TGI with SF-268 CNS was over 100 µM; with NCI-H23 lung, over 100 µM; with HOP-62 NSCLC it was over 100 µM; in the assay with MCF7 breast it was 56.9 µM.

Regarding `O=C(CC(=O)CC(O)(C(F)(F)F)C(F)(F)F)CC(O)(C(F)(F)F)C(F)(F)F`, the concentration for total growth inhibition (TGI) with LOX IMVI melanoma, in the assay on UACC-257 melanoma, in the assay on SNB-19 CNS, with RPMI-8226 leukemia, in the assay on OVCAR-3 ovarian and in the assay on SK-OV-3 ovarian was over 10 µM in each case. Further, the TGI in the assay on SF-268 CNS, with NCI-H23 lung, in the assay with HOP-62 NSCLC and in the assay with MCF7 breast was over 10 µM in each case.

For `COC(=O)[C@H](Cc1cn(C)cn1)NC(=O)[C@H](Cc1c[nH]c2ccccc12)NC(=O)Nc1cc(C(F)(F)F)cc(C(F)(F)F)c1`, the GI50 in the assay with LOX IMVI melanoma, in the assay with UACC-257 melanoma, in the assay with SNB-19 CNS, in the assay on RPMI-8226 leukemia, in the assay on OVCAR-3 ovarian and in the assay on SK-OV-3 ovarian was over 10 µM in each case. Also, the GI50 in the assay on SF-268 CNS, in the assay on NCI-H23 lung, in the assay with HOP-62 NSCLC and with MCF7 breast was over 10 µM in each case. The TGI in the assay on LOX IMVI melanoma, with UACC-257 melanoma, in the assay on SNB-19 CNS, in the assay on RPMI-8226 leukemia, in the assay with OVCAR-3 ovarian and in the assay with SK-OV-3 ovarian was over 10 µM in each case. In addition, the TGI with SF-268 CNS, with NCI-H23 lung, with HOP-62 NSCLC and in the assay with MCF7 breast was over 10 µM throughout.

Take `COc1ccc(C(=O)/C=C/c2ccc(/C=C/c3cc(OC)c(OC)c(OC)c3)cc2)cc1`: the GI50 with LOX IMVI melanoma is 3.76 µM; in the assay on UACC-257 melanoma, 9 µM; in the assay with SNB-19 CNS it was 21.1 µM; with RPMI-8226 leukemia, 2.57 µM; in the assay on OVCAR-3 ovarian, 3.92 µM; with SK-OV-3 ovarian, 15.6 µM. The GI50 in the assay on SF-268 CNS is 6.08 µM; in the assay with NCI-H23 lung it was 5.39 µM; in the assay with HOP-62 NSCLC it was 12.8 µM; in the assay with MCF7 breast, 2.18 µM. For the same molecule, the total growth inhibition concentration (TGI) in the assay with LOX IMVI melanoma is 60.9 µM; in the assay with UACC-257 melanoma, over 100 µM; with SNB-19 CNS, over 100 µM; with RPMI-8226 leukemia, 8.54 µM; in the assay with OVCAR-3 ovarian it was 14.3 µM; in the assay on SK-OV-3 ovarian it was 64.5 µM. Also, the TGI came to 88.3 µM with SF-268 CNS, 65.9 µM in the assay on NCI-H23 lung, 63.8 µM with HOP-62 NSCLC and 36.6 µM with MCF7 breast.

For `Cc1occc1C(=S)Nc1ccc(Cl)c(COC(C)(C)C)c1`, the TGI in the assay on LOX IMVI melanoma came to 34 µM; with UACC-257 melanoma, 31.3 µM; with SNB-19 CNS, 48.2 µM; in the assay with RPMI-8226 leukemia, 50.5 µM; in the assay on OVCAR-3 ovarian, 30 µM; with SK-OV-3 ovarian, 34 µM. For the same molecule, the TGI in the assay with SF-268 CNS stood at 35.9 µM; in the assay with NCI-H23 lung, 35.7 µM; in the assay on HOP-62 NSCLC, 44.9 µM; with MCF7 breast, 31.6 µM.
